Experimental data: patent US11071731B2, “Allosteric modulators of the mu opioid receptor” (Chiromics, LLC, priority 2017, dated 2021)

Assays:
mu opioid receptor (MOR) [1] = target: T1, mu opioid receptor (MOR) (Homo sapiens, UniProt P35372); test: Hit Hunter cAMP signaling assay (adenylyl cyclase inhibition), PAM mode with EC20 endomorphin-1; format: cell-based
mu opioid receptor (MOR) [2] = target: T1, mu opioid receptor (MOR); test: PathHunter β-arrestin recruitment assay, PAM mode with EC20 endomorphin-1; format: cell-based
Procedure, shortened: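 Enzyme fragment complementation read-out: β-gal ED fragment fused to receptor, EA fused to β-arrestin, recruitment restoring β-gal activity detected by chemiluminescence. EC50 and percent maximal response derived for each compound.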

[3] = cAMP EC50, adenylyl cyclase inhibition
[4] = maximal response for adenylyl cyclase inhibition
[5] = maximal response for β-arrestin recruitment
[6] = β-arrestin recruitment, read-out: β-arr. EC50
[7] = adenylyl cyclase inhibition, read-out: cAMP EC50

T1 sequence (P35372 whole entry): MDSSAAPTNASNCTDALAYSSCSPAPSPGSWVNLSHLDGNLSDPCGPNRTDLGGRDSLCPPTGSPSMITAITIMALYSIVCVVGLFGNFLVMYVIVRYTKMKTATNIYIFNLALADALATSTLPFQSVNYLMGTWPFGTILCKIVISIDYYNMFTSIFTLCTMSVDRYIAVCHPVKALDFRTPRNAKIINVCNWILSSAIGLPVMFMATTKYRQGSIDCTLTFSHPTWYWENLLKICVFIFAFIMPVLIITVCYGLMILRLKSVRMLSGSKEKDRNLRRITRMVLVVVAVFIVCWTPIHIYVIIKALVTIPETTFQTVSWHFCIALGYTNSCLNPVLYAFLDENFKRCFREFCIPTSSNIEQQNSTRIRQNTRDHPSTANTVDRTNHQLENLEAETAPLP

Row | Structure (SMILES) | EC50 (mu opioid receptor (MOR) [1]; [3]) [nM] | cAMP Max. Resp. (mu opioid receptor (MOR) [1]; [4]) | β-arr Max. Resp. (mu opioid receptor (MOR) [2]; [5]) | EC50 (mu opioid receptor (MOR) [2]; [6]) [nM] | EC50 (mu opioid receptor (MOR) [1]; [7]) [nM] | further results
1 | Cc1nccc(C2CCCCN2c2nc(Cl)ncc2F)n1 (stereo not drawn) [compound 377] | < 700 | D (D represents a maximal response of < 40%) | D (D represents a maximal response of < 40%) | < 700 |  | 
2 | Fc1cnc(Cl)nc1N1CCCCC1c1ccnc(Cl)c1 (stereo not drawn) [compound 328] | < 700 | D (D represents a maximal response of < 40%) | D (D represents a maximal response of < 40%) | < 700 |  | 
3 | Fc1cnc(Cl)nc1N1CC(F)(F)CC1c1cccc(C(F)(F)F)c1 (stereo not drawn) [compound 467] |  |  |  | > 2100 | > 2100 | cAMP Max. Resp. (mu opioid receptor (MOR) [1]; maximal response, adenylyl cyclase inhibition): D (D represents a maximal response of < 40%); β-arr Max. Resp. (mu opioid receptor (MOR) [2]; maximal response, β-arrestin recruitment): F (F represents a maximal response of > 60%)
4 | N#Cc1cc(C2CCCCN2S(=O)(=O)c2ccc(Cl)cc2)ccc1F (racemic) [compound 58] |  | D (D represents a maximal response of < 40%) | F (F represents a maximal response of > 60%) | > 2100 | > 2100 | 
5 | CCC1CCCN(c2nc(Cl)ncc2F)C1c1ccc(OC)c(Br)c1 (stereo not drawn) [compound 251] |  | D (D represents a maximal response of < 40%) | F (F represents a maximal response of > 60%) | > 2100 | > 2100 | 
6 | COc1ccc(C2CC(C)CN2c2nc(Cl)ncc2F)cc1Br (stereo not drawn) [compound 237] |  | D (D represents a maximal response of < 40%) | E (E represents a maximal response of 40-60%) | > 2100 | > 2100 | 
7 | Fc1ccc(C2CCCCN2c2nc(Cl)ncc2F)cc1Cl (single isomer, unassigned) [compound 343] |  | D (D represents a maximal response of < 40%) | D (D represents a maximal response of < 40%) | < 700 | < 700 | 
8 | CC1CCN(S(=O)(=O)c2ccc(Cl)cc2)C1c1ccc(OC(F)(F)F)c(Br)c1 (mixture of isomers) [Compound 94] |  | D (D represents a maximal response of < 40%) | F (F represents a maximal response of > 60%) | < 700 | < 700 | 
9 | COc1ccc(C2CCCCN2c2nc(Cl)ncc2F)cc1Br (stereo not drawn) [compound 132] | 700 to 2100 | D (D represents a maximal response of < 40%) | F (F represents a maximal response of > 60%) | > 2100 |  | 
10 | FC(F)(F)c1cccc(C2CCCCN2Cc2ccc(Cl)cc2)n1 (stereo not drawn) [compound 146] | > 2100 | D (D represents a maximal response of < 40%) | F (F represents a maximal response of > 60%) | > 2100 |  | 
11 | [2H]C1(c2cccc(C(F)(F)F)c2)C(F)CCCN1c1nc(Cl)ncc1F (stereo not drawn) [compound 207] | 700 to 2100 | D (D represents a maximal response of < 40%) | F (F represents a maximal response of > 60%) | 700 to 2100 |  | EC50 (mu opioid receptor (MOR) [1]; cAMP EC50 (nM), adenylyl cyclase inhibition, Table 3): 969 nM; cAMP Max Resp. (mu opioid receptor (MOR) [1]; maximal response for adenylyl cyclase inhibition, Table 3): 34; β-arr. Max Resp. (mu opioid receptor (MOR) [2]; maximal response for β-arrestin recruitment, Table 3): 116; EC50 (mu opioid receptor (MOR) [2]; β-arrestin recruitment, Table 3, read-out: β-arr. EC50): 1170 nM
12 | O=S(=O)(c1ccc(Cl)cc1)N1CCCCC1c1ccc(Cl)c(C(F)(F)F)c1 (racemic) [compound 64] |  | D (D represents a maximal response of < 40%) | F (F represents a maximal response of > 60%) | 700 to 2100 | 700 to 2100 | 
13 | O=S(=O)(c1ccc(Cl)cc1)N1CCCCC1c1cc(F)ccn1 (racemic) [compound 62] |  | D (D represents a maximal response of < 40%) | F (F represents a maximal response of > 60%) | > 2100 | > 2100 | 
14 | COc1ccc(C2CC(C(F)(F)F)CN2S(=O)(=O)c2ccc(Cl)cc2)cc1Br (single isomer, unassigned) [Compound 119] |  | D (D represents a maximal response of < 40%) | E (E represents a maximal response of 40-60%) | > 2100 | > 2100 | 
15 | Fc1cc(C2COCCN2c2nc(Cl)ncc2F)cc(C(F)(F)F)c1 (racemic) [Compound 190] |  | F (F represents a maximal response of > 60%) | F (F represents a maximal response of > 60%) | 700 to 2100 | < 700 | 
16 | Cc1nccc(C2CCCCN2c2nc(Cl)ccc2F)n1 (stereo not drawn) [compound 381] |  | D (D represents a maximal response of < 40%) | D (D represents a maximal response of < 40%) | < 700 | < 700 | 
17 | O=S(=O)(c1cccc(Cl)c1)N1C2CCC(C2)C1c1ccc(F)c(Br)c1 (stereo not drawn) [Compound 180] |  | E (E represents a maximal response of 40-60%) | F (F represents a maximal response of > 60%) | > 2100 | > 2100 | 
18 | Fc1cnc(Cl)nc1N1CCCCC1c1cncc(C(F)(F)F)n1 (stereo not drawn) [compound 274] | 700 to 2100 | D (D represents a maximal response of < 40%) | F (F represents a maximal response of > 60%) | > 2100 |  | 
19 | O=S(=O)(c1ccc(Cl)cc1)N1CCCCC1c1ccnc(F)c1 (racemic) [compound 59] |  | F (F represents a maximal response of > 60%) | F (F represents a maximal response of > 60%) | > 2100 | > 2100 | 
20 | Fc1ccc(C2C(F)CCCN2c2nc(Cl)ncc2F)cc1Br (stereo not drawn) [compound 214] |  |  |  | > 2100 | 700 to 2100 | 
21 | O=S(=O)(c1ccc(Cl)cc1)N1CCCCC1c1ccc(Br)c(F)c1 (racemic) [compound 71] |  | D (D represents a maximal response of < 40%) | F (F represents a maximal response of > 60%) | > 2100 | > 2100 | cAMP Max Resp. (mu opioid receptor (MOR) [1]; adenylyl cyclase inhibition, activity switching by MOR PAMs): D (D represents a maximal response of < 40%); EC50 (mu opioid receptor (MOR) [1]; adenylyl cyclase inhibition, activity switching by MOR PAMs, read-out: cAMP EC50): > 2100 nM; β-arrestin Max Response (mu opioid receptor (MOR) [2]; β-arrestin recruitment, activity switching by MOR PAMs): F (F represents a maximal response of >60%); EC50 (mu opioid receptor (MOR) [2]; β-arrestin recruitment, activity switching by MOR PAMs, read-out: β-arrestin EC50): > 2100 nM
22 | OC1CN(c2ncc(F)c(N3CCCCC3c3cccc(C(F)(F)F)c3)n2)C1 (stereo not drawn) [compound 256] | > 2100 | D (D represents a maximal response of < 40%) | D (D represents a maximal response of < 40%) | > 2100 |  | 
23 | Fc1cnc(Cl)nc1N1CCCCC1c1cncc(Cl)c1 (stereo not drawn) [compound 280] |  | E (E represents a maximal response of 40-60%) | F (F represents a maximal response of > 60%) |  |  | EC50 (mu opioid receptor (MOR) [1]): > 2100 nM
24 | Fc1ccc(C2CCCCN2Cc2cc(Cl)ccc2Cl)cc1Cl (stereo not drawn) [compound 158] | < 700 | D (D represents a maximal response of < 40%) | F (F represents a maximal response of > 60%) | 700 to 2100 |  | 
25 | COc1ccc(C2CC(C(F)(F)F)CN2S(=O)(=O)c2ccc(Cl)cc2)cc1Br (single isomer, unassigned) [Compound 120] |  | F (F represents a maximal response of > 60%) | F (F represents a maximal response of > 60%) | > 2100 | > 2100 | 
26 | FC(F)(F)c1cccc(C2CCCCN2c2ccnc(Cl)n2)c1 (stereo not drawn) [compound 257] | > 2100 | D (D represents a maximal response of < 40%) | F (F represents a maximal response of > 60%) | > 2100 |  | 
27 | Cc1cc(C2CCCCN2c2nc(Cl)ncc2F)ccc1F (stereo not drawn) [compound 130] | 700 to 2100 | E (E represents a maximal response of 40-60%) | F (F represents a maximal response of > 60%) | < 700 |  | 
28 | O=S(=O)(c1cc(F)ccc1F)N1CCCCC1c1cccc(C(F)(F)F)c1 (stereo not drawn) [Compound 26] |  | D (D represents a maximal response of < 40%) | F (F represents a maximal response of > 60%) | > 2100 | > 2100 | 
